Test results from patent US20070208086A1, “UBIQUINONE ANALOGS AND METHODS OF USE” (THE REGENTS OF THE UNIVERSITY OF CALIFORNIA, priority 2006, published 2007).

Experiment: Determination of reduction potentials by cyclic voltametry (CV)
Type: physicochemical
Description: In one embodiment, the compound of the invention has a reduction potential, which is different from the reduction potential of CoQ10. In an exemplary embodiment, the reduction potential found for the compound of the invention is lower than the reduction potential of CoQ10. Methods for the determination of reduction potentials are known in the art and are, for example, described in A. J. Fry, Synthetic Organic Electrochemistry, 2nd Ed., Wiley-Interscience, New York, 1989. For example the reduction potential is measured against the Ag/AgNO3 redox system. “Reduction potential” can mean “first reduction potential”, in which a first electron is transferred (e.g., Q→Q ? ), or “second reduction potential”, in which a second electron is transferred (e.g., Q ? →Q^−2). Typically, “reduction potential” for the purpose of comparing compounds, means the first reduction potential. However, for certain compounds a distinction between a first and a second reduction potential cannot be measured. In these cases, the “overall” (measurable) reduction potential is used to compare reduction potential values of compounds. The reduction potentials for selected ubiquinone analogs of the invention are summarized in Example 12, below. For example, while the first reduction potential of CoQ10 in a particular assay is −1.11, the first reduction potential found for compound 9 is −1.22, which is lower than −1.11. In another example, the overall reduction potential for compound 7 is −1.44, which is lower than −1.11 for CoQ10. In an exemplary embodiment, the ratio (a/b) between the reduction potential of a compound of the invention (a) and the reduction potential of CoQ10 to (b) in a particular assay is between about 1 and about 50. In another exemplary embodiment, the ratio is between about 1 and about 40, preferably between about 1 and about 30, more preferably between about 1 and about 20, and even more preferably between about 1 and about 10. In yet another exemplary embodiment, the ratio is between about 1 and about 8 preferably between about 1 and about 6, more preferably between about 1 and about 4, and most preferably between about 1 and about 2.
The redox chemistry of a variety of purified ubiquinones of the invention was examined using cyclic voltametry (CV). Methods for the determination of reduction potentials are known in the art and are, for example, described in A. J. Fry, Synthetic Organic Electrochemistry, 2nd Ed., Wiley-Interscience, New York, 1989.
The resulting redox data (including those for CoQ10) are listed in the order of increasing first-wave potentials (Epc1) in Table 1, below. The abbreviation Epc1 and Epc2 are used to represent the values of the first and second cathodic peak potentials, respectively. The peak potentials correspond to the first and second reduction wave minima in the recorded CV graphs (see e.g., FIG. 1).
The value of the second peak potential is, typically, an approximation. Chemical side reactions coupled to the transient species generated in the first reduction may contribute to the shape of the wave, and thus the peak potential. […] Representative first and second reduction waves for analogs 1 and 23, as well as for CoQ10, are illustrated in FIG. 1, which represents an expanded portion of the recorded CV graph.

SMILES: COC1=C(OC)C(=O)C(C/C=C(\C)CC/C=C(\C)CC/C=C(\C)CC/C=C(\C)CC/C=C(\C)CC/C=C(\C)CC/C=C(\C)CC/C=C(\C)CC/C=C(\C)CCC=C(C)C)=C(C)C1=O [CoQ10]
- Q/Q*− (Epc1), first wave potential (Epc vs. Ag/AgNO3 in DMF, first cathodic peak potential): −1.11 V
- Q*−/Q−2 (Epc2), second wave potential (Epc vs. Ag/AgNO3 in DMF, second cathodic peak potential, typically an approximation): −1.42 V
- first reduction potential (FIG. 1 reduction waves): -1.11 V
- second reduction potential (FIG. 1 reduction waves): -1.42 V
- first reduction potential (in a particular assay): −1.11
